One test concerns the target CSF-1R kinase (Homo sapiens (Human), UniProt P07333). As to the kind of experiment: CSF-1R kinase assay (AlphaScreen). The test is classed as biochemical. To be noted: class symbol. As for the experimental part: Inhibition of CSF-1R kinase activity by a test compound disclosed herein was estimated by AlphaScreen (PerkinElmer). […] Reactions were incubated at 30° C. for 45 min and stopped by adding 5 μL of 50 mM EDTA. Analysis of resulting product using an AlphaScreen kit, and counted with Enspire Alpha (PerkinElmer). […] The IC50 values of quinoxaline compounds of this invention against CSF-1R kinase were determined using the GraphPad Prism 5 software.
(In Alpha technology, singlet oxygen from a donor bead excites a nearby acceptor bead.)

Another test concerns the target c-KIT kinase (Homo sapiens (Human), UniProt P10721). The experiment in a line: c-KIT kinase assay (radiometric). Type of test: biochemical. An outline of the steps: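 Recombinant c-Kit (20 ng) with 2 μg Poly-(Glu4:Tyr1) in MOPS pH 7.0 buffer with MgCl2/MnCl2, 10 μM ATP plus [^33P]-ATP, 4% DMSO final, 60 min at 30° C. Stopped with phosphoric acid, filter-captured and scintillation counted; IC50 from curve fit.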

The next test concerns the target FLT3 kinase (Homo sapiens (Human), UniProt P36888). As to the kind of experiment: FLT3 kinase assay (radiometric). The test is classed as biochemical. To be noted: bound. An outline of the steps:
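Recombinant FLT3 (5 ng) phosphorylating poly(Glu4:Tyr1) (2 μg) with 10 μM ATP plus [^33P]-ATP in MOPS pH 7.0 buffer, 4% DMSO final, 60 min at 30° C. Reaction stopped with phosphoric acid, filter-captured and scintillation-counted; IC50 derived from dose-response.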

The target of another test is PDGFRβ kinase (Homo sapiens (Human), UniProt P09619). As to the kind of experiment: PDGFRβ kinase assay (radiometric). Type of test: biochemical. In a few lines:
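Radiometric assay: recombinant PDGFRβ with poly(Glu4:Tyr1) in MOPS pH 7.0 buffer containing Mg2+/Mn2+, 10 μM ATP plus [33P]-ATP, and compound at 4% DMSO final. Incubated 60 min at 30° C, stopped with phosphoric acid, filter-captured and scintillation-counted. IC50 from curve fitting.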

The test system of test [1] is CSF-1-dependent M-NFS-60 mouse myeloid leukemia cell. As to the kind of experiment: M-NFS-60 cell proliferation assay (CellTiter-96). Type of test: cell-based. To be noted: Cytotoxicity, M-NFS-60 cells, 72 hours. An outline of the steps:
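CSF-1-dependent M-NFS-60 cells seeded at 2000 cells/well, settled overnight at 37 °C, 5% CO2, then exposed to increasing compound concentrations for 72 h. Viability read by CellTiter 96 AQueous One reagent (4 h) at 490 nm absorbance.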

In test [2] the test system is MV4-11 human acute myeloid leukemia cell with FLT3-ITD mutation. The experiment in a line: MV4-11 cell proliferation assay (CellTiter-96). To be noted: Cytotoxicity, MV4-11 cells, 72 hours. Type of test: cell-based. In a few lines: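 MV4-11 cells (FLT3-ITD, FLT3-dependent growth) seeded at 6500 cells/well, incubated overnight at 37° C., 5% CO2, then exposed to increasing compound concentrations for 72 hours. Viability read by CellTiter96 AQueous One reagent (4 hours), absorbance at 490 nm.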

In test [3] the test system is Kasumi-1 human acute myeloid leukemia cell with c-KIT N822K activating mutation. As to the kind of experiment: Kasumi-1 cell proliferation assay (CellTiter-96). The test is classed as cell-based. The following applies: Cytotoxicity, Kasumi-1 cells, 72 hours. An outline of the steps: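 Kasumi-1 cells, seeded at 64000 cells/well and incubated overnight at 37 °C, were exposed to increasing compound concentrations for 72 h. Viability was measured by CellTiter96 AQueous One reagent (4 h) and absorbance at 490 nm.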

The test system of test [4] is THP-1 human acute monocytic leukemia cell harboring NRAS G12D mutation. As to the kind of experiment: THP-1 cell proliferation assay (counter screen, CellTiter-96). Type of test: cell-based. To be noted: Cytotoxicity, THP-1 cells (counter screen), 72 hours. In a few lines: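 THP-1 cells, RTK-independent owing to NRAS G12D, seeded at 5000/well, incubated overnight at 37 °C/5% CO2, then exposed to increasing compound concentrations for 72 h. CellTiter96 AQueous One reagent added for 4 h; viability from absorbance at 490 nm.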
On the technique in general: A counterscreen serves to expose hits that act by an unwanted route or on another target.

The test system of test [5] is osteoclast precursors (osteoclast differentiation). The experiment in a line: Osteoclast tartrate-resistant acid phosphatase assay. Type of test: cell-based. The following applies: 168 h, at 1 μM treatment, 7 days, RANKL and M-CSF, read-out: inhibition activity against osteoclast differentiation. An outline of the steps: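 Differentiation inhibition was scored at 1 μM compound in duplicate, using supernatant TRAP activity read at 550 nm with an acid phosphatase kit.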

The text below walks through data of US10689362B2, “Quinoxaline compounds as type III receptor tyrosine kinase inhibitors” (Development Center for Biotechnology, priority 2016, dated 2020).

Sequence of c-KIT kinase (P10721 26-976): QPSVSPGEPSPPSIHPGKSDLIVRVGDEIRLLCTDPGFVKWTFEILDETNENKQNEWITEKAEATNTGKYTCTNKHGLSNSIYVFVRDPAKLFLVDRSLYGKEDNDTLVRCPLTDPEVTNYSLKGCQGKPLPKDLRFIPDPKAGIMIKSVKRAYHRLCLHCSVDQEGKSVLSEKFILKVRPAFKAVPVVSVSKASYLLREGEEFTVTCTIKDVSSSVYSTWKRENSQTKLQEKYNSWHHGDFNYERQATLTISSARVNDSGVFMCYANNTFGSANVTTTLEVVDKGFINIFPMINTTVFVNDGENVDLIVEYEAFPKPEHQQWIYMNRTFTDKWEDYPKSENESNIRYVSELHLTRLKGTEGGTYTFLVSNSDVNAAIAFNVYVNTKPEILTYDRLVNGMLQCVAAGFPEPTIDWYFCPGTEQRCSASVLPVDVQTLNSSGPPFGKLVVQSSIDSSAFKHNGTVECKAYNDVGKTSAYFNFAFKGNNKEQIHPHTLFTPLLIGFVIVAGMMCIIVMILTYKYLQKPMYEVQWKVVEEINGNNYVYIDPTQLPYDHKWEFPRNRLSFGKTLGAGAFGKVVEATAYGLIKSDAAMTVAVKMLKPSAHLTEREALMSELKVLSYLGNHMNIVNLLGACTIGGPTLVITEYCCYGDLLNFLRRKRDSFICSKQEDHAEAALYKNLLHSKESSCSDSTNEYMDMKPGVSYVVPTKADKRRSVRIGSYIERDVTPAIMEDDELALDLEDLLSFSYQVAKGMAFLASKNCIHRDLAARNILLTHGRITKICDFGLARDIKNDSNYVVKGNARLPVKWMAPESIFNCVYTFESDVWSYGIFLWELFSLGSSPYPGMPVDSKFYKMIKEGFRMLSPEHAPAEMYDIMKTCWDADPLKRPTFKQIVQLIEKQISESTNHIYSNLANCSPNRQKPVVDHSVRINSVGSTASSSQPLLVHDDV
Sequence of FLT3 kinase (P36888 27-993): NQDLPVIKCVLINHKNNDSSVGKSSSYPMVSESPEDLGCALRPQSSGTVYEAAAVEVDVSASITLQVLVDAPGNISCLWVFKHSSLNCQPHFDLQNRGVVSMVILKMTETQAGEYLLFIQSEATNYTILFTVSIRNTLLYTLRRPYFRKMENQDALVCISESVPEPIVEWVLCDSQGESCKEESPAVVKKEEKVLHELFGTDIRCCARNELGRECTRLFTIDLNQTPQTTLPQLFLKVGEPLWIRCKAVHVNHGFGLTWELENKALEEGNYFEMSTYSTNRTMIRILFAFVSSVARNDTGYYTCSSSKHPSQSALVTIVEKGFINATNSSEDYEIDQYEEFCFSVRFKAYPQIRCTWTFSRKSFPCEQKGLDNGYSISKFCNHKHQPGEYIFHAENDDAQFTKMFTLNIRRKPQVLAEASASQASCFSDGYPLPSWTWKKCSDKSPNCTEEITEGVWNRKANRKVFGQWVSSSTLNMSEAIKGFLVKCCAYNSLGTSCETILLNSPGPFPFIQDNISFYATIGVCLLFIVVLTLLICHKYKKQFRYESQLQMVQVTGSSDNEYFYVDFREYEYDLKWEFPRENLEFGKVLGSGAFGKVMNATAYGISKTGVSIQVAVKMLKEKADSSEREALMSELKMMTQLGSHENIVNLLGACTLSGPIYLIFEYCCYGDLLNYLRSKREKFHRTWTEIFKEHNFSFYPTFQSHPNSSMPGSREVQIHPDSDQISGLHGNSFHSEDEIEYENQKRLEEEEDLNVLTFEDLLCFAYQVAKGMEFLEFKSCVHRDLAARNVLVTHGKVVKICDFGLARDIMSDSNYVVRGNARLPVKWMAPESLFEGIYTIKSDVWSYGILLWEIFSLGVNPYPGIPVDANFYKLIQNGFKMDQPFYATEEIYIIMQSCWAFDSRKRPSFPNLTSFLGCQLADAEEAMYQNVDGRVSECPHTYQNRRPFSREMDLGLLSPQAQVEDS
Sequence of CSF-1R kinase (P07333 20-972): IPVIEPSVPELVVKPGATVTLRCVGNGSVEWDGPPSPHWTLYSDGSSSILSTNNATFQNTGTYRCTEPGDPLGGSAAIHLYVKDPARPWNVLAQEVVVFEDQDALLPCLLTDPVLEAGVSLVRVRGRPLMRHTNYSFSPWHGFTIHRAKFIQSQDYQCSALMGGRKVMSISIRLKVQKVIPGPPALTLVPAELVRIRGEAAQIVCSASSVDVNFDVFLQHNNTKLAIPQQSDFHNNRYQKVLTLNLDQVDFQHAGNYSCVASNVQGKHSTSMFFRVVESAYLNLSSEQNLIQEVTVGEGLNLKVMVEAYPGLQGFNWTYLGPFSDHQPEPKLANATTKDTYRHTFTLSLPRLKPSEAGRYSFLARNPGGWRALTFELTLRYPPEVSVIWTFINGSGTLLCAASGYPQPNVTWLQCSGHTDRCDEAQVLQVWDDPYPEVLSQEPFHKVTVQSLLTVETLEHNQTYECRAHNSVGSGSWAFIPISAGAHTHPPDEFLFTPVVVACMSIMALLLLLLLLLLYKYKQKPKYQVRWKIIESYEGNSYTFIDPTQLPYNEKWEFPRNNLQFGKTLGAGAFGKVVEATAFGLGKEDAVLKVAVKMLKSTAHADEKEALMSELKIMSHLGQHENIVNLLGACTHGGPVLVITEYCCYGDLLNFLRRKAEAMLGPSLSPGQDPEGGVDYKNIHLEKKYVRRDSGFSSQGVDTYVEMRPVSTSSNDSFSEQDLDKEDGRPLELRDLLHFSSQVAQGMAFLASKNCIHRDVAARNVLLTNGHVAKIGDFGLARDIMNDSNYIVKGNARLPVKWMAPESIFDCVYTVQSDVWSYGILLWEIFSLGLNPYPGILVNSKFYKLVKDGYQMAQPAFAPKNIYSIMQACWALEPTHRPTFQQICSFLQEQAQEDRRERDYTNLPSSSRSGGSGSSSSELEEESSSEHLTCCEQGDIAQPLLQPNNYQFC
Sequence of PDGFRβ kinase (P09619 33-1106): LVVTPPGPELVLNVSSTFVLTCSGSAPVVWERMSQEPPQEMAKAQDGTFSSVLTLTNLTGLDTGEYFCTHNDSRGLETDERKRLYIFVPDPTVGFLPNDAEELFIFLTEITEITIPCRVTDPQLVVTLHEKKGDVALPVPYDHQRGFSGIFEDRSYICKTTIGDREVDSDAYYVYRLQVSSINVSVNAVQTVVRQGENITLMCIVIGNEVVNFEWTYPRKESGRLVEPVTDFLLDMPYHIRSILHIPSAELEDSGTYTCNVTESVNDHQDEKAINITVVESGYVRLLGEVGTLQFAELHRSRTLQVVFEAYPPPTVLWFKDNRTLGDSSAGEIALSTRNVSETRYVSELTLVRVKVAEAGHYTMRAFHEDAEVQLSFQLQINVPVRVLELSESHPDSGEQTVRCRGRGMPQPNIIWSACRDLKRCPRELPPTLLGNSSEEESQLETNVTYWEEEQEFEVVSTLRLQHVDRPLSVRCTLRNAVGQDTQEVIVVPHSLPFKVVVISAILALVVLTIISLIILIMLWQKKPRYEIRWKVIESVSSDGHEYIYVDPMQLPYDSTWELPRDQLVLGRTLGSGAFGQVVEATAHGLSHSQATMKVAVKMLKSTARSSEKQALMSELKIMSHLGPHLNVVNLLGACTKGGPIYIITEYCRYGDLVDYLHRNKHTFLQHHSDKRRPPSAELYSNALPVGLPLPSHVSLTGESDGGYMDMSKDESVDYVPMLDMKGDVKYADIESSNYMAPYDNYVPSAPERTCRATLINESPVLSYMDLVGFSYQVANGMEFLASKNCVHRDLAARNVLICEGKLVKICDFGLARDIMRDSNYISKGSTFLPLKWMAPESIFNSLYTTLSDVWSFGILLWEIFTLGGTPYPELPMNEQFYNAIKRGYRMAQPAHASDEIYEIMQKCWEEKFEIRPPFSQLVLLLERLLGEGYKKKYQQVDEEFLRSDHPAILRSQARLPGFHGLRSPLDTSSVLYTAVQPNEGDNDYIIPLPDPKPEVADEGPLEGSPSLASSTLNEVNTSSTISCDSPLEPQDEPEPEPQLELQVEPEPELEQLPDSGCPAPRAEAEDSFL

Broadly, the IC50 is the point on the concentration scale where inhibition reaches its midpoint. The low end stands for greater potency, the high end for weaker potency. The term inhibition denotes the drop in the measured response relative to a control, in per cent. As for `COc1cc(Nc2ccc3ncc(N4CCC4)nc3c2C#N)ccc1OCc1cccc(C#N)c1` [Example 87, 3-(azetidin-1-yl)-6-((4-((3-cyanobenzyl)oxy)-3-methoxyphenyl)amino)quinoxaline-5-carbonitrile], the IC50 against CSF-1R kinase is less than 100 nM; at c-KIT kinase (class symbol), 100 to 300 nM; against FLT3 kinase, greater than 1000 nM; against PDGFRβ kinase (bound), greater than 1000 nM; in test [1], 300 to 1000 nM; in test [2] it was greater than 10000 nM. In addition, the IC50 in test [3] was 1000 to 10000 nM; in test [4], greater than 10000 nM. Also, the inhibition at 1 µM in test [5] is greater than 50%.

On to `COc1ccc(COc2ccc(Nc3ccc4ncc(N5CCN(CCO)CC5)nc4c3C#N)cc2OC)cn1` [Example 75, 3-(4-(2-hydroxyethyl)piperazin-1-yl)-6-((3-methoxy-4-((6-methoxypyridin-3-yl)methoxy)phenyl)amino)quinoxaline-5-carbonitrile], for which the IC50 on CSF-1R kinase was less than 100 nM; on c-KIT kinase (class symbol), 100 to 300 nM; against FLT3 kinase it was greater than 1000 nM; at PDGFRβ kinase (bound), greater than 1000 nM; in test [1] it was less than 300 nM; in test [2], greater than 10000 nM. Besides, the IC50 was 300 to 1000 nM in test [3] and greater than 10000 nM in test [4]. Also, the inhibition at 1 µM in [5] is greater than 50%.

Consider `COc1cc(Nc2ccc3ncc(N4CCOCC4)nc3c2C#N)ccc1OCc1ccc(F)cc1` [Example 40, 6-((4-((4-fluorobenzyl)oxy)-3-methoxyphenyl)amino)-3-morpholinoquinoxaline-5-carbonitrile], for which the IC50 at CSF-1R kinase is less than 100 nM; against c-KIT kinase (bound) it was greater than 1000 nM; against FLT3 kinase it was greater than 1000 nM; on PDGFRβ kinase (bound) it was greater than 1000 nM; in test [1], less than 300 nM; in [2], greater than 10000 nM. Besides, the IC50 in [3] and in test [4] was greater than 10000 nM each time. Further, the inhibition at 1 µM in [5] was greater than 50%.

For the molecule `COCc1ccc(COc2ccc(Nc3ccc4ncc(N5CCOCC5)nc4c3C#N)cc2OC)cn1` [Example 107, 6-((3-methoxy-4-((6-(methoxymethyl)pyridin-3-yl)methoxy)phenyl)amino)-3-morpholinoquinoxaline-5-carbonitrile], the half-inhibitory concentration (IC50) was less than 100 nM on CSF-1R kinase; 100 to 300 nM on c-KIT kinase (class symbol); greater than 1000 nM against FLT3 kinase; greater than 1000 nM on PDGFRβ kinase (bound); less than 300 nM in test [1]; 1000 to 10000 nM in test [2]. For the same molecule, the IC50 in test [3] was 300 to 1000 nM; in test [4], greater than 10000 nM. The inhibition at 1 µM in [5] is greater than 50%.

`COc1ccc(COc2ccc(Nc3ccc4ncc(N(C)C)nc4c3C#N)cc2OC)cc1` [Example 7, 3-(dimethylamino)-6-((3-methoxy-4-((4-methoxybenzyl)oxy)phenyl)amino)quinoxaline-5-carbonitrile]: the IC50 against CSF-1R kinase is less than 100 nM; at c-KIT kinase (class symbol) it was less than 100 nM; on FLT3 kinase, greater than 1000 nM; at PDGFRβ kinase (bound), greater than 1000 nM; in test [1], less than 300 nM; in [2], greater than 10000 nM. Further, the concentration for half-maximal inhibition (IC50) in test [3] is less than 300 nM; in [4], greater than 10000 nM. Also, the inhibition at 1 µM in test [5] is greater than 50%.

Take `COc1cc(N(C)c2ccc3ncc(N4CCOCC4)nc3c2C#N)ccc1OCc1ccc(C)nc1` [Example 129, 6-((3-methoxy-4-((6-methylpyridin-3-yl)methoxy)phenyl)(methyl)amino)-3-morpholinoquinoxaline-5-carbonitrile]: the IC50 was less than 100 nM against CSF-1R kinase; 300 to 1000 nM at c-KIT kinase (class symbol); greater than 1000 nM against FLT3 kinase; greater than 1000 nM against PDGFRβ kinase (bound); 300 to 1000 nM in test [1]; 1000 to 10000 nM in test [2]. For the same molecule, the concentration for half-maximal inhibition (IC50) in test [3] is 1000 to 10000 nM; in test [4], greater than 10000 nM. For the same molecule, the inhibition at 1 µM in test [5] was greater than 50%.

In the case of `COc1ccc(COc2ccc(Nc3ccc4ncc(N5CCN(C6CC6)CC5)nc4c3C#N)cc2OC)cn1` [Example 118, 3-(4-cyclopropylpiperazin-1-yl)-6-((3-methoxy-4-((6-methoxypyridin-3-yl)methoxy)phenyl)amino)quinoxaline-5-carbonitrile], the IC50 on CSF-1R kinase was less than 100 nM; against c-KIT kinase (class symbol), 100 to 300 nM; against FLT3 kinase, greater than 1000 nM; against PDGFRβ kinase (bound), greater than 1000 nM; in test [1], less than 300 nM; in test [2], greater than 10000 nM. The IC50 is 1000 to 10000 nM in test [3] and greater than 10000 nM in test [4]. In addition, the inhibition at 1 µM in [5] is greater than 50%.

As for `COc1ccc(COc2ccc(Nc3ccc4ncc(N5CCOCC5)nc4c3C#N)cc2OC)cc1OC` [Example 58, 6-((4-((3,4-dimethoxybenzyl)oxy)-3-methoxyphenyl)amino)-3-morpholinoquinoxaline-5-carbonitrile], the IC50 against CSF-1R kinase was less than 100 nM; against c-KIT kinase (class symbol) it was less than 100 nM; against FLT3 kinase it was greater than 1000 nM; on PDGFRβ kinase (class symbol) it was 300 to 1000 nM; in [1] it was less than 300 nM; in test [2], greater than 10000 nM. The IC50 is less than 300 nM in test [3] and greater than 10000 nM in test [4]. Further, the inhibition at 1 µM in test [5] was greater than 50%.

`COc1cc(Nc2ccc3ncc(N4CCOCC4)nc3c2C#N)ccc1OCc1ccsc1` [Example 126, 6-((3-methoxy-4-(thiophen-3-ylmethoxy)phenyl)amino)-3-morpholinoquinoxaline-5-carbonitrile]: the IC50 was less than 100 nM against CSF-1R kinase; less than 100 nM on c-KIT kinase (class symbol); greater than 1000 nM at FLT3 kinase; greater than 1000 nM on PDGFRβ kinase (bound); 300 to 1000 nM in [1]; 1000 to 10000 nM in test [2]. Also, the IC50 in test [3] was less than 300 nM; in test [4], greater than 10000 nM. In addition, the inhibition at 1 µM in test [5] was greater than 50%.

Regarding `COc1ccc(COc2ccc(Nc3ccc4ncc(N5CCC5)nc4c3C#N)cc2OC)cn1` [Example 86, 3-(azetidin-1-yl)-6-((3-methoxy-4-((6-methoxpyridin-3-yl)methoxy)phenyl)amino)quinoxaline-5-carbonitrile], the IC50 on CSF-1R kinase is less than 100 nM; against c-KIT kinase (class symbol) it was 100 to 300 nM; against FLT3 kinase it was greater than 1000 nM; at PDGFRβ kinase (bound) it was greater than 1000 nM; in test [1] it was less than 300 nM; in test [2], greater than 10000 nM. In addition, the values for the IC50 in [3] and in test [4] were 1000 to 10000 nM and greater than 10000 nM, respectively. For the same molecule, the inhibition at 1 µM in test [5] was greater than 50%.

Regarding `COc1cc(Nc2ccc3ncc(N4CCOCC4)nc3c2C#N)ccc1OCc1cccs1` [Example 127, 6-((3-methoxy-4-(thiophen-2-ylmethoxy)phenyl)amino)-3-morpholinoquinoxaline-5-carbonitrile], the IC50 on CSF-1R kinase was less than 100 nM; on c-KIT kinase (class symbol) it was less than 100 nM; against FLT3 kinase, greater than 1000 nM; against PDGFRβ kinase (bound), greater than 1000 nM; in test [1], 1000 to 10000 nM; in test [2], 1000 to 10000 nM. In addition, the IC50 in test [3] is 300 to 1000 nM; in test [4], greater than 10000 nM. The inhibition at 1 µM in [5] was greater than 50%.

With `COc1ccc(COc2ccc(Nc3ccc4ncc(C(C)C)nc4c3C#N)cc2OC)cc1` [Example 109, 3-isopropyl-6-((3-methoxy-4-((4-methoxybenzyl)oxy)phenyl)amino)quinoxaline-5-carbonitrile], the IC50 on CSF-1R kinase is less than 100 nM; against c-KIT kinase (bound), greater than 1000 nM; against FLT3 kinase, greater than 1000 nM; on PDGFRβ kinase (bound), greater than 1000 nM; in test [1], 1000 to 10000 nM; in [2], greater than 10000 nM. In addition, the figures for the half-maximal inhibitory concentration (IC50) in [3] and in test [4] were 1000 to 10000 nM and greater than 10000 nM, respectively. Besides, in test [5], the inhibition at 1 µM was greater than 50%.
